Data: US12336981B2, “Compounds and compositions for the inhibition of NAMPT” (Valo Health, Inc., priority 2010, dated 2025)
Read-outs that look alike come from different tables or passages of the source.

Legend:
[1] = target: T1, NAMPT (Homo sapiens, UniProt P43490); assay: Biochemical inhibition assay: NAMPT enzymatic reaction, NMN quantified by mass spectrometry; details: read-out: Biochem IC50
T1 construct: His tag; host or cells: E. coli
How it was run: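 Inhibition of E. coli-expressed His-tagged human NAMPT, measured as NMN formation by mass spectrometry after a 30 min room-temperature reaction containing 1 μM NAM, 100 μM PRPP and 2.5 mM ATP.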

[2] = system: A2780 cells; assay: In-vitro cell proliferation assay (SRB), A2780 cells; assay type: cell-based; details: Homo sapiens, A2780, 72 h, A2780 cells, 72 hours, read-out: A2780 IC50
How it was run: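 Viable cells measured by SRB staining after 6% TCA fixation, absorbance 570 nm. Media-only background subtracted; % inhibition derived at two compound concentrations.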

T1 sequence (P43490 whole entry): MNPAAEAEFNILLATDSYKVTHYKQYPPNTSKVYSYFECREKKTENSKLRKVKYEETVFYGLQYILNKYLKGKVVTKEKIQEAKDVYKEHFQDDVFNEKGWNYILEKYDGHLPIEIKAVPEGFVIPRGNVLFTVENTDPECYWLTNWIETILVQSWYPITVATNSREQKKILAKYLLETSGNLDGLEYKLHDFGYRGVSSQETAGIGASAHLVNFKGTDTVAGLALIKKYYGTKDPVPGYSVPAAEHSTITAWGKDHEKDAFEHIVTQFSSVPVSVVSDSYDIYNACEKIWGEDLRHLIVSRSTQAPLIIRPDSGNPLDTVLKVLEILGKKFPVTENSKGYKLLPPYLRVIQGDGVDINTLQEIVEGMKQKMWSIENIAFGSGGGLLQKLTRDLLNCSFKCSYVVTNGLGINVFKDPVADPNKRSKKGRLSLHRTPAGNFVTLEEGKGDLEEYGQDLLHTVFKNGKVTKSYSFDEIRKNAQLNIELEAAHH

Row | SMILES | IC50 ([1]; NAMPT enzymatic assay) | IC50 ([2]; SRB) | IC50 ([1]; NAMPT enzymatic reaction) | IC50 ([2]; SRB assay)
1 | Cn1cc2ccc(S(=O)(=O)c3ccc(CNC(=O)c4ccc5nccn5c4)cc3)cc2n1 [N-{[4-(2-methyl-2H-indazole-6-sulfonyl)phenyl]methyl}imidazo[1,2-a]pyridine-6-carboxamide] | 1.9 nM | 1.7 nM |  | 
2 | Cc1cc(Cl)ccc1S(=O)(=O)c1ccc(CNC(=O)c2cc3ccncc3o2)cc1 [N-({4-[(4-chloro-2-methylbenzene)sulfonyl]phenyl}methyl)furo[2,3-c]pyridine-2-carboxamide] |  | 64.7 nM | 24.9 nM | 
3 | O=C(NCc1ccc(S(=O)(=O)c2ccccc2Cl)cc1)c1cnc2[nH]ncc2c1 [N-({4-[(2-chlorobenzene)sulfonyl]phenyl}methyl)-1H-pyrazolo[3,4-b]pyridine-5-carboxamide] |  | 100 to 1000 nM | 92.5 nM | 
4 | O=C(NCc1ccc(S(=O)(=O)c2cc(F)cc(N3CCOCC3)c2)cc1)c1ccc2nccn2c1 | 3 nM | 0.6 nM |  | 
5 | O=C(NCc1ccc(S(=O)(=O)c2ccc(C(F)F)c(F)c2)cc1)c1cnc2nccn2c1 [N-[(4-{[4-(difluoromethyl)-3-fluorobenzene]sulfonyl}phenyl)methyl]imidazo[1,2-a]pyrimidine-6-carboxamide] | 8.2 nM | 27.9 nM |  | 
6 | O=C(NCc1ccc(S(=O)(=O)c2ccccc2)cc1)c1cnc2nccn2c1 [N-{[4-(benzenesulfonyl)phenyl]methyl}imidazo[1,2-a]pyrimidine-6-carboxamide] | 2 nM | 57 nM |  | 
7 | O=C(NCc1ccc(S(=O)(=O)c2ccc3nc(C(F)(F)F)cn3c2)cc1)c1cc2ccncc2s1 [N-({4-[2-(trifluoromethyl)imidazo[1,2-a]pyridine-6-sulfonyl]phenyl}methyl)thieno[2,3-c]pyridine-2-carboxamide] | 3.1 nM | 3.9 nM |  | 
8 | O=C(NCc1ccc(S(=O)(=O)c2ccccc2CN2CCOCC2)cc1)c1cnc2[nH]ncc2c1 | 69.4 nM | 46.5 nM |  | 
9 | O=C(NCc1ccc(S(=O)(=O)c2ccc(-c3ccccc3)cc2)cc1)c1ccc2ncsc2c1 [N-({4-[(4-phenylbenzene)sulfonyl]phenyl}methyl)-1,3-benzothiazole-6-carboxamide] |  | 100 to 1000 nM | 20.7 nM | 
10 | O=C(NCc1ccc(S(=O)(=O)c2ccccc2)cc1)c1ccc2ncccc2n1 [N-{[4-(benzenesulfonyl)phenyl]methyl}-1,5-naphthyridine-2-carboxamide] |  |  | 875 nM | > 10000 nM
11 | O=C(NCc1ccc(S(=O)(=O)c2ccc(N3CCOCC3)cc2)cc1)c1cnc2[nH]ncc2c1 [N-[(4-{[4-(morpholin-4-yl)benzene]sulfonyl}phenyl)methyl]-1H-pyrazolo[3,4-b]pyridine-5-carboxamide] | 4.45 nM | 2.47 nM |  | 
12 | CCS(=O)(=O)c1cccc(S(=O)(=O)c2ccc(CNC(=O)c3ccc4nccn4c3)cc2)c1 | 13.5 nM | 6 nM |  | 
13 | Cn1cc2cc(S(=O)(=O)c3ccc(CNC(=O)c4cnc5nccn5c4)cc3)ccc2n1 [N-{[4-(2-methyl-2H-indazole-5-sulfonyl)phenyl]methyl}imidazo[1,2-a]pyrimidine-6-carboxamide] | 1.2 nM | 8.2 nM |  | 
14 | O=C(NCc1ccc(S(=O)(=O)c2cc(C(F)(F)F)ccn2)cc1)c1cc2ccncc2s1 [N-({4-[4-(trifluoromethyl)pyridine-2-sulfonyl]phenyl}methyl)thieno[2,3-c]pyridine-2-carboxamide] | 3.6 nM | 3 nM |  | 
15 | CC(C)CNC(=O)c1cccc(S(=O)(=O)c2ccc(CNC(=O)c3cc4cnccc4[nH]3)cc2)c1 | 19.3 nM | 45.8 nM |  | 
16 | Cc1nc(-c2cccc(S(=O)(=O)c3ccc(CNC(=O)c4cnc5nccn5c4)cc3)c2)no1 | 2.8 nM | 2.3 nM |  | 
17 | O=C(NCc1ccc(S(=O)(=O)c2ccccc2C(F)(F)F)cc1)c1cc2ccncc2s1 [N-[(4-{[2-(trifluoromethyl)benzene]sulfonyl}phenyl)methyl]thieno[2,3-c]pyridine-2-carboxamide] |  |  | 13 nM | 26 nM

Row | SMILES | IC50 ([1]; NAMPT enzymatic assay) | IC50 ([2]; SRB) | IC50 ([1]; NAMPT enzymatic reaction) | IC50 ([2]; SRB assay)
18 | CC(=O)c1ccc(S(=O)(=O)c2ccc(CNC(=O)c3cc4ccncc4s3)cc2)cc1 [N-({4-[(4-acetylbenzene)sulfonyl]phenyl}methyl)thieno[2,3-c]pyridine-2-carboxamide] |  |  | 4 nM | 2.5 nM
19 | O=C(NCc1ccc(S(=O)(=O)c2cnn(-c3cccc(Cl)c3)c2)cc1)c1cc2cnccc2[nH]1 [N-({4-[1-(3-chlorophenyl)-1H-pyrazole-4-sulfonyl]phenyl}methyl)-1H-pyrrolo[3,2-c]pyridine-2-carboxamide] | 16.9 nM | 13.1 nM |  | 
20 | O=C(NCc1ccc(S(=O)(=O)c2cccc(OC(F)(F)F)c2F)cc1)c1cc2ccncc2s1 | 9.8 nM | 13.3 nM |  | 
21 | O=C(NCc1ccc(S(=O)(=O)c2cccc(N3CCCCC3)c2)cc1)c1cnc2[nH]ncc2c1 | 53.6 nM | 14 nM |  | 
22 | COc1cccc(Cl)c1S(=O)(=O)c1ccc(CNC(=O)c2cc3ccncc3o2)cc1 |  | 21.4 nM | 16.7 nM | 
23 | Cc1ccccc1S(=O)(=O)c1ccc(CNC(=O)c2cc3ccncc3o2)cc1 [N-({4-[(2-methylbenzene)sulfonyl]phenyl}methyl)furo[2,3-c]pyridine-2-carboxamide] |  | 43.3 nM | 15.2 nM | 
24 | CCCn1cc(S(=O)(=O)c2ccc(CNC(=O)c3cc4ccncc4s3)cc2)cn1 [N-{[4-(1-propyl-1H-pyrazole-4-sulfonyl)phenyl]methyl}thieno[2,3-c]pyridine-2-carboxamide] | 1.9 nM | 1.6 nM |  | 
25 | CCCOc1cccc(F)c1S(=O)(=O)c1ccc(CNC(=O)c2cc3ccncc3s2)cc1 |  | 29.3 nM | 11.5 nM | 
26 | COc1cccc(S(=O)(=O)c2ccc(CNC(=O)c3cc4ccncc4o3)cc2)c1 |  | 6.9 nM | 3.5 nM | 
27 | CS(=O)(=O)c1ccccc1S(=O)(=O)c1ccc(CNC(=O)c2cnc3[nH]ncc3c2)cc1 |  | 100 to 1000 nM | 202 nM | 
28 | Cn1c(S(=O)(=O)c2ccc(CNC(=O)c3cnc4[nH]ncc4c3)cc2)cc2ccccc21 [N-{[4-(1-methyl-1H-indole-2-sulfonyl)phenyl]methyl}-1H-pyrazolo[3,4-b]pyridine-5-carboxamide] | 14 nM | 13.2 nM |  | 
29 | O=C(NCc1ccc(S(=O)(=O)c2ccccc2Oc2ccccc2)cc1)c1cnc2[nH]ncc2c1 [N-({4-[(2-phenoxybenzene)sulfonyl]phenyl}methyl)-1H-pyrazolo[3,4-b]pyridine-5-carboxamide] |  | 100 to 1000 nM | 100 to 1000 nM | 
30 | CCN(CC)C(=O)c1cc(Cl)cc(S(=O)(=O)c2ccc(CNC(=O)c3cc4ccncc4s3)cc2)c1 | 2.3 nM | 0.8 nM |  | 
31 | Cc1cc(C)n(-c2cccc(S(=O)(=O)c3ccc(CNC(=O)c4cc5cc(O)ccc5[nH]4)cc3)c2)n1 | 100 to 1000 nM | 100 to 1000 nM |  | 
32 | O=C(NCc1ccc(S(=O)(=O)c2cccc(C(=O)NC3CCCC3)c2)cc1)c1cnc2nccn2c1 | 4.7 nM | 48.3 nM |  | 
33 | CCOc1cc(S(=O)(=O)c2ccc(CNC(=O)c3cc4ccncc4o3)cc2)ccc1F [N-({4-[(3-ethoxy-4-fluorobenzene)sulfonyl]phenyl}methyl)furo[2,3-c]pyridine-2-carboxamide] |  | 7.2 nM | 11 nM | 
34 | Cc1cc(S(=O)(=O)c2ccc(CNC(=O)c3ccc4nccn4c3)cc2)ccc1F [N-({4-[(4-fluoro-3-methylbenzene)sulfonyl]phenyl}methyl)imidazo[1,2-a]pyridine-6-carboxamide] |  | 7.14 nM | 23.5 nM | 
